Experiments:
Format in all cases: in vivo
sorghum [1] = test: Herbicidal activity test against upland field weeds (soil treatment test); design: key to Soil treatment herbicidal activity, Sorghum: 0 (no control); 100 (complete control); conditions: 50 g ai/ha, scale 0 (no control) to 100 (complete control); for plant injury at 50 g/ha: Sorghum
How it was run: (§1)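 Pre-emergence soil surface spray, day after sowing, into sandy loam pots with fertilizer; compounds at 50 or 75 g a.i./ha in 50% acetone, 0.1% Tween-20. Greenhouse at 30±5 °C, 14/10 h light/dark; visual control rated 0–100 against untreated after 14 days (21 if needed).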

cocklebur = test: as above; design: key to Soil treatment herbicidal activity, Cocklebur: 0 (no control); 100 (complete control); conditions: 50 g ai/ha, scale 0 (no control) to 100 (complete control)
How it was run: as §1

sorghum [2] = test: Herbicidal activity test against upland field weeds (foliar treatment test); conditions: Sorghum, 50 g ai/ha, scale 0-100
How it was run: (§2)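 Greenhouse-grown plants (30±5 °C, 14/10 h light/dark) foliar hand-sprayed with compound in 50% acetone, 0.1% Tween-20 at 50 or 75 g a.i./ha. Control visually scored 0 (none) to 100 (complete) versus untreated after 14 days, or 21 days if needed.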

velvetleaf = test: Herbicidal activity test against upland field weeds (soil treatment test); design: key to Soil treatment herbicidal activity, velvet leaf: 0 (no control); 100 (complete control); conditions: 50 g ai/ha, scale 0 (no control) to 100 (complete control)
How it was run: as §1

wheat = test: Phytotoxicity test for field crops (soil treatment test); design: key: 0 (no harm); 9 (complete withered)
How it was run: (§3)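 Crops sown in sterilized horticultural soil (pH 6.1, organic material 1.0%) with mixed fertilizer (N:P:K=17:21:17); one day after sowing, soil sprayed with compound in 33% acetone/0.1% Tween-20 at 19˜300 g a.i./ha. Greenhouse at 30±5° C, 14/10 h light/dark; injury scored visually 0–9 versus untreated control at 10 and 20 days.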

corn = test: as above; design: key: 0 (no harm); 9 (complete withered)
How it was run: as §3

soybean = test: as above; design: key: 0 (no harm); 9 (complete withered)
How it was run: as §3

cotton = test: as above; design: key: 0 (no harm); 9 (complete withered)
How it was run: as §3

rice = test: as above; design: key: 0 (no harm); 9 (complete withered)
How it was run: as §3

indian jointvetch = test: Herbicidal activity test against upland field weeds (soil treatment test); design: key to Soil treatment herbicidal activity, Indian jointvetch: 0 (no control); 100 (complete control); conditions: 50 g ai/ha, scale 0 (no control) to 100 (complete control)
How it was run: as §1

fall panicum = test: as above; design: key to Soil treatment herbicidal activity, Fall panicum: 0 (no control); 100 (complete control); conditions: 50 g ai/ha, scale 0 (no control) to 100 (complete control)
How it was run: as §1

quack grass = test: Herbicidal activity test against upland field weeds (foliar treatment test); design: key to Foliar treatment herbicidal activity, quack grass: 0 (no control); 100 (complete control); conditions: 50 g ai/ha, scale 0-100
How it was run: as §2

barnyard grass = test: as above; design: key to Foliar treatment herbicidal activity, barnyard grass: 0 (no control); 100 (complete control); conditions: 50 g ai/ha, scale 0-100; for pest or weed control at 50 g/ha: Echinochloa crus-galli
How it was run: as §2

black nightshade = test: as above; design: key to Foliar treatment herbicidal activity, black nightshade: 0 (no control); 100 (complete control); conditions: 50 g ai/ha, scale 0-100; for pest or weed control at 50 g/ha: Solanum nigrum
How it was run: as §2

[3] = 50 g ai/ha, Wheat (10 days after treatment)
[4] = 50 g ai/ha, Wheat (20 days after treatment)
[5] = 100 g ai/ha, Wheat (10 days after treatment)
[6] = 50 g ai/ha, Corn (10 days after treatment)
[7] = 50 g ai/ha, Corn (20 days after treatment)
[8] = 100 g ai/ha, Corn (10 days after treatment)
[9] = 100 g ai/ha, Corn (20 days after treatment)
[10] = 50 g ai/ha, Soybean (10 days after treatment)
[11] = 50 g ai/ha, Soybean (20 days after treatment)
[12] = 100 g ai/ha, Soybean (10 days after treatment)
[13] = 100 g ai/ha, Soybean (20 days after treatment)
[14] = 50 g ai/ha, Cotton (10 days after treatment)
[15] = 50 g ai/ha, Cotton (20 days after treatment)
[16] = 100 g ai/ha, Cotton (10 days after treatment)
[17] = 100 g ai/ha, Cotton (20 days after treatment)
[18] = 50 g ai/ha, Rice (10 days after treatment)
[19] = 50 g ai/ha, Rice (20 days after treatment)
[20] = 100 g ai/ha, Rice (10 days after treatment)
[21] = 100 g ai/ha, Rice (20 days after treatment)
[22] = 100 g ai/ha, Wheat (20 days after treatment)

Row | SMILES | Soil treatment herbicidal activity, Cocklebur (cocklebur) | plant injury at 50 g/ha (sorghum [2]) [%] | Soil treatment herbicidal activity, velvet leaf (velvetleaf) | Soil treatment phytotoxicity, Wheat (wheat; [3]) | Soil treatment phytotoxicity, Wheat (wheat; [5]) | Soil treatment phytotoxicity, Corn (corn; [6]) | Soil treatment phytotoxicity, Corn (corn; [7]) | Soil treatment phytotoxicity, Corn (corn; [8]) | Soil treatment phytotoxicity, Corn (corn; [9]) | Soil treatment phytotoxicity, Soybean (soybean; [11]) | Soil treatment phytotoxicity, Soybean (soybean; [13]) | Soil treatment phytotoxicity, Cotton (cotton; [14]) | Soil treatment phytotoxicity, Cotton (cotton; [15]) | Soil treatment phytotoxicity, Cotton (cotton; [16]) | Soil treatment phytotoxicity, Cotton (cotton; [17]) | Soil treatment phytotoxicity, Rice (rice; [18]) | Soil treatment phytotoxicity, Rice (rice; [19]) | Soil treatment phytotoxicity, Rice (rice; [20]) | Soil treatment phytotoxicity, Rice (rice; [21]) | Foliar treatment herbicidal activity, quack grass (quack grass) | also measured
1 | Cn1nnc(COCc2nc(C(F)F)ccc2C(=O)Nc2nnnn2C)n1 [Compound No. 2-84, 6-(difluoromethyl)-N-(1-methyl-1H-tetrazol-5-yl)-2-(((2-methyl-2H-tetrazol-5-yl)methoxy)methyl)nicotinamide] | 0 | 90 | 100 | 0 | 0 | 0 | 0 | 1 | 0 | 0 | 0 | 0 | 6 | 3 | 7 | 5 | 3 | 6 | 7 | 0 | plant injury at 50 g/ha (sorghum [1]): 20%; Soil treatment phytotoxicity, Wheat (wheat; [4]): 0; Soil treatment phytotoxicity, Soybean (soybean; [10]): 0; Soil treatment phytotoxicity, Soybean (soybean; [12]): 0; pest or weed control at 50 g/ha (indian jointvetch): 98%; pest or weed control at 50 g/ha (fall panicum; Panicum dichotomiflorum): 20%; pest or weed control at 50 g/ha (barnyard grass): 95%; Foliar treatment herbicidal activity, black nightshade (black nightshade): 100
2 | Cn1nnc(COCc2nc(C(F)(F)F)ccc2C(=S)Nc2nnnn2C)n1 [Compound No. 2-106, N-(1-methyl-1H-tetrazol-5-yl)-2-(((2-methyl-2H-tetrazol-5-yl)methoxy)methyl)-6-(trifluoromethyl)pyridin-3-carbothioamide] | 100 | 70 | 100 | 0 | 0 | 0 | 0 | 0 | 0 | 0 | 0 | 4 | 6.5 | 5 | 8 | 8 | 8 | 9 | 9 | 0 | plant injury at 50 g/ha (sorghum [1]): 70%; Soil treatment phytotoxicity, Wheat (wheat; [22]): 1; Soil treatment phytotoxicity, Soybean (soybean; [10]): 0; Soil treatment phytotoxicity, Soybean (soybean; [12]): 0; Soil treatment herbicidal activity, Indian jointvetch (indian jointvetch): 100; Soil treatment herbicidal activity, Fall panicum (fall panicum): 100; pest or weed control at 50 g/ha (barnyard grass): 80%; pest or weed control at 50 g/ha (black nightshade): 95%
3 | Cn1nnc(CSCc2nc(C(F)F)ccc2C(=O)Nc2nnnn2C)n1 [Compound No. 2-108, 6-(difluoromethyl)-N-(1-methyl-1H-tetrazol-5-yl)-2-((((2-methyl-2H-tetrazol-5-yl)methyl)thio)methyl)nicotinamide] | 0 | 70 | 0 | 0 | 0 | 0 | 0 | 0 | 0 | 0 | 3 | 0 | 1 | 0 | 3 | 0 | 0 | 0 | 0 | 0 | Soil treatment herbicidal activity, Sorghum (sorghum [1]): 0; Soil treatment phytotoxicity, Wheat (wheat; [4]): 0; Soil treatment phytotoxicity, Wheat (wheat; [22]): 0; Soil treatment herbicidal activity, Indian jointvetch (indian jointvetch): 0; Soil treatment herbicidal activity, Fall panicum (fall panicum): 0; pest or weed control at 50 g/ha (barnyard grass): 60%; Foliar treatment herbicidal activity, black nightshade (black nightshade): 100
4 | Cn1nnc(CSCc2nc(C(F)(F)F)ccc2C(=O)N(C(=O)c2ccccc2)c2nnnn2C)n1 [Compound No. 2-109, N-benzoyl-N-(1-methyl-1H-tetrazol-5-yl)-2-((((2-methyl-2H-tetrazol-5-yl)methyl)thio)methyl)-6-(trifluoromethyl)nicotinamide] | 0 | 80 | 100 | 0 | 0 | 0 | 0 | 1 | 0 | 1 | 0 | 0 | 0 | 0 | 1 | 0 | 0 | 0 | 0 | 0 | Soil treatment herbicidal activity, Sorghum (sorghum [1]): 0; Soil treatment phytotoxicity, Wheat (wheat; [4]): 0; Soil treatment phytotoxicity, Wheat (wheat; [22]): 0; Soil treatment herbicidal activity, Indian jointvetch (indian jointvetch): 0; Soil treatment herbicidal activity, Fall panicum (fall panicum): 0; Foliar treatment herbicidal activity, barnyard grass (barnyard grass): 100; Foliar treatment herbicidal activity, black nightshade (black nightshade): 100
5 | Cn1nc(COCc2nc(C(F)(F)F)ccc2C(=O)Nc2nnnn2C)nc1Cl [Compound No. 2-135, 2-(((5-chloro-1-methyl-1H-1,2,4-triazol-3-yl)methoxy)methyl)-N-(1-methyl-1H-tetrazol-5-yl)-6-(trifluoromethyl)nicotinamide] | 0 | 30 | 0 | 0 | 0 | 0 | 0 | 0 | 0 | 0 | 3 | 1 | 3 | 1 | 4 | 6 | 8 | 7 | 8 | 0 | Soil treatment herbicidal activity, Sorghum (sorghum [1]): 0; Soil treatment phytotoxicity, Wheat (wheat; [4]): 0; Soil treatment phytotoxicity, Wheat (wheat; [22]): 0; Soil treatment phytotoxicity, Soybean (soybean; [10]): 0; Soil treatment phytotoxicity, Soybean (soybean; [12]): 2; Soil treatment herbicidal activity, Indian jointvetch (indian jointvetch): 0; Soil treatment herbicidal activity, Fall panicum (fall panicum): 0; pest or weed control at 50 g/ha (barnyard grass): 98%; pest or weed control at 50 g/ha (black nightshade): 98%
